In patent EP1205473A1, “VESAMICOL PIPERAZINE DERIVATIVES AND DRUGS CONTAINING THE SAME” (DAIICHI RADIOISOTOPE LABORATORIES, LTD., priority 1999, dated 2001):
Like-named read-outs stand apart in the source and are kept apart here. One block for each compound: values may come before it.

Key:
vesamicol receptors [1] = biological target: T1, vesamicol receptors (Rattus norvegicus, UniProt Q62666); experiment: Saturation experiment of I-125 labeled DRC140 on brain cell fractions (Scatchard plots); format: binding; parameters: Synaptic vesicles were extracted and separated from the brain of a rat; from tissue; host or cells: rat brain without cerebellum: P2, crude synaptic vesicles, purified synaptic vesicles; settings: for Bmax / Kd: average value ± standard deviation
T1 sequence (Q62666 1-530): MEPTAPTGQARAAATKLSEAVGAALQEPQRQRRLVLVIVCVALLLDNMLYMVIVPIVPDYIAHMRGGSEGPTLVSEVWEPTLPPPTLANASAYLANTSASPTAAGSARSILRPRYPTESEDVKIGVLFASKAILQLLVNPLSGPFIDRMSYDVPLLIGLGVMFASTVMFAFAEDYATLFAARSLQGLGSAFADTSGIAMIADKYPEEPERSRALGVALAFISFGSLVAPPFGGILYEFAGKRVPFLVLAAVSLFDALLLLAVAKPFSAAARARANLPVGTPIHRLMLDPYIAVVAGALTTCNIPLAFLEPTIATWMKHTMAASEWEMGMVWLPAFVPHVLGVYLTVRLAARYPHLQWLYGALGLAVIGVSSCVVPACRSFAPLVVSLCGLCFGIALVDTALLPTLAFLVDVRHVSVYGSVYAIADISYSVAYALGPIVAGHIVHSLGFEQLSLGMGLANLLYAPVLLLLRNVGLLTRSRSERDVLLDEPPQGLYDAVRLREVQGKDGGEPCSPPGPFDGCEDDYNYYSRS

[2] = biological target: T2, serotonin 5-HT1A receptors (Rattus norvegicus, UniProt P19327); experiment: Receptor binding test: inhibition of tritium-labeled 8-hydroxy-DPAT binding to brain (hippocampus) homogenate; parameters: species or system Male Wistar rats
T2 construct: The hippocampi were immediately collected from the brains; from tissue; host or cells: rat hippocampus membranes
T2 sequence (P19327 1-422): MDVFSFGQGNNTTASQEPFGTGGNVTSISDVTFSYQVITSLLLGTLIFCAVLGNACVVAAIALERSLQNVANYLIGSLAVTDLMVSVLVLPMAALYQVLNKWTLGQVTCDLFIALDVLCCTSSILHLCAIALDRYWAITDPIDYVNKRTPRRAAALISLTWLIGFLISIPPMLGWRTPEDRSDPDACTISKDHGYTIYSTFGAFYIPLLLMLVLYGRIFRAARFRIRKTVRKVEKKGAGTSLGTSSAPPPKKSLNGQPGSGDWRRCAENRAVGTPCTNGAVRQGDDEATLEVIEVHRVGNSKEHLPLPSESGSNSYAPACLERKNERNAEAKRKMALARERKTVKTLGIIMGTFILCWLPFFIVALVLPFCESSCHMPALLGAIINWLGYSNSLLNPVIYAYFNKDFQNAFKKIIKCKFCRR
Protocol: (§1) Properties relating to binding of the vesamicol piperazine derivatives of the present invention to various receptors were examined as follows. Specifically, ligands which combine with each receptor were incubated together with homogenates prepared as follows.
To measure affinity to serotonin 5-HT1A receptors, tritium-labeled 8-hydroxy-DPAT was added to a brain homogenate prepared as follows. The vesamicol piperazine derivatives synthesized in the Examples were added at various concentrations, and the mixture was incubated for 30 minutes at 37°C. To measure affinity to serotonin 5-HT2A receptors, tritium-labeled ketanserin was added to a brain homogenate prepared as follows. The vesamicol piperazine derivatives synthesized in the Examples were added at various concentrations, and the mixture was incubated for 15 minutes at 37°C.
(§2) B (%) =((1 0 0 × [U])^(∩))/([ I C50 (])^(∩) (+ [U])^(∩)) [formula] wherein B(%) is the proportion of specific binding in the total binding, n indicates a Hill coefficient, and U is the concentration of unbound ligand.
Male Wistar rats were anesthetized with ether and were decapitated and the brains quickly extracted. The hippocampi were immediately collected from the brains. A 40-fold (vol/wt) amount of ice cooled 50 mM Tris-HCl buffer (pH 7.4) was added to the hippocampi. The mixture was homogenized using a potter-type homogenizer. The homogenate was centrifuged at 40,000 x g for 20 minutes. The supernatant liquid was removed and the resulting pellets were suspended in a 40-fold amount of Tris-HCl buffer solution. The suspension was centrifuged and the Tris buffer solution was again added to the pellets. This procedure was repeated twice. The product thus obtained was homogenized using a 40-fold amount of Tris-HCl buffer solution and incubated for 10 minutes at 37°C to remove endogenic 5-HT. The cell membrane was collected by centrifugation, washed twice, and suspended in a 10-fold amount of 50 mM Tris-HCl buffer solution (pH 7.4). The suspension thus obtained was stored at -80°C until the start of the binding experiment.

vesamicol receptors [3] = biological target: T1, vesamicol receptors; experiment: Inhibition experiment: inhibition of binding of radioactive-iodine-labeled DRC140 to P2 fractions; parameters: Synaptic vesicles were extracted and separated from the brain of a rat; from tissue; host or cells: rat brain without cerebellum: P2, crude synaptic vesicles, purified synaptic vesicles
sigma receptors = biological target: T3, sigma receptors (Cavia porcellus, UniProt Q60492); experiment: Receptor binding test: inhibition of tritium-labeled (+) pentazocine binding to brain homogenate; parameters: species or system male guinea pig
T3 construct: The brain was immediately extracted; The cerebellum was removed from the brain; from tissue; host or cells: guinea pig brain without cerebellum, membrane pellet
T3 sequence (Q60492 whole entry): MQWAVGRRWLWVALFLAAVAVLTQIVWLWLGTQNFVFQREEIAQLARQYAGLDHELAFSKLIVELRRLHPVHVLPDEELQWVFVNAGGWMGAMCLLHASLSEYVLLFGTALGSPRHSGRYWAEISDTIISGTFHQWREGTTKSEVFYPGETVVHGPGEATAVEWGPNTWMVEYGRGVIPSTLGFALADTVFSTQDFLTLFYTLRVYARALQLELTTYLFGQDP
Protocol: as §1
To measure affinity to sigma receptors, tritium-labeled (+) pentazocine was added to a brain homogenate prepared as follows. The vesamicol piperazine derivatives synthesized in the Examples were added at various concentrations, and the mixture was incubated for two hours at room temperature.
as §2
A male guinea pig was anesthetized with ether and was decapitated. The brain was immediately extracted. The cerebellum was removed from the brain. 10 mM Tris-sucrose buffer solution (0.32 M sucrose + 10 mM Tris-HCl (pH 7.4)) was added in the amount of 10 ml/g of the tissue. The mixture was homogenized by a potter-type homogenizer for 6-10 strokes. The homogenate was centrifuged at 1,000 x g for 10 minutes at 4°C and the supernatant liquid was collected. The resulting pellets were suspended in the Tris-sucrose buffer solution at the concentration of 2 ml/g, followed by centrifugation at 1,000 x g for 10 minutes at 4°C. The supernatant liquids obtained by the two centrifugation at 1,000 x g were combined and centrifuged at 31,000 x g for 15 minutes at 4°C. The resulting pellets were suspended in a 10 mM Tris-HCl buffer solution (pH 7.4) at a concentration of 3 ml/g of tissue and incubated for 30 minutes at 25°C. After incubation, the suspension was centrifuged at 31,000 x g for 15 minutes at 4°C. The pellets obtained were suspended in a 10 mM Tris-HCl buffer solution (pH 7.4) to make a final concentration of 1.53 ml/g of tissue. The suspension was homogenized by a potter-type homogenizer for 5 strokes. The homogenate was stored at -80°C until the start of the experiment.

vesamicol receptors [4] = biological target: T1, vesamicol receptors; experiment: Receptor binding test: inhibition of I-125 labeled 5-iodobenzo vesamicol binding to brain homogenate; parameters: from tissue; host or cells: rat brain without cerebellum, P2 fraction; species or system Male Wistar rats; settings: for IC50: Inhibitive concentration at 50% (IC50), Vesamicol receptor, Table 5, incubated three hours at 37°C, no unit printed in table (b19 gives nM for DRC140)
Protocol: as §1
To measure affinity of vesamicol receptors, I-125 labeled 5-iodobenzo vesamicol (synthesized and labeled according to Jung et al., J. Med. Chem. 33, 2065-2068, 1990) was added to a brain homogenate prepared as follows. The vesamicol piperazine derivatives synthesized in the Examples were added at various concentrations. The mixture was then incubated for three hours at 37°C.
as §2
Male Wistar rats were anesthetized with ether and were decapitated. The brains were immediately extracted. The cerebella were removed from the brains. 0.32 M sucrose (containing 4 mM HEPES (pH 7.4)) in an amount of five times the wet amount (weight) of this sample was added. The sample was homogenized by a potter-type homogenizer for 12 strokes while cooling with ice. 0.32 M sucrose in the same amount as the homogenate (total: 10 times the wet amount of the original sample) was added. The suspension thus obtained was centrifuged for 5 minutes at 1,000 x g. The precipitate was removed. The supernatant liquid was centrifuged at 9,200 x g for 15 minutes to separate the precipitate from the supernatant liquid. P2 fractions were suspended in a Tris-HCl buffer (pH 7.4) for binding experiments and stored at -80°C until the start of the binding experiment.

vesamicol receptors [5] = biological target: T1, vesamicol receptors; experiment: Inhibition experiment: inhibition of binding of radioactive-iodine-labeled DRC140 to purified synaptic vesicle fractions; parameters: Synaptic vesicles were extracted and separated from the brain of a rat; from tissue; host or cells: rat brain without cerebellum: P2, crude synaptic vesicles, purified synaptic vesicles
adrenaline α1 receptors = experiment: Receptor binding test: inhibition of tritium-labeled prazosin binding to brain homogenate; parameters: species or system Male Wistar rats
[6] = inhibitive concentration at 50% (IC50), Receptor Vesamicol
[7] = Inhibitive concentration at 50% (IC50), Sigma α-1 receptor
[8] = inhibitive concentration at 50% (IC50), Receptor Sigma-1

Compound: OC1Cc2cccc([125I])c2CC1N1CCN(c2ccccc2)CC1 (stereo not shown) [I-125 labeled DRC140]
Bmax (vesamicol receptors [1]; Crude synaptic vesicles): 821±78.6 fmol/mg protein | Kd (vesamicol receptors [1]; Crude synaptic vesicles): 0.34 ± 0.03 nM | Kd (vesamicol receptors [1]; P2 fraction): 0.41 ± 0.11 nM | Kd (vesamicol receptors [1]; Purified synaptic vesicles): 0.31 nM | Bmax (vesamicol receptors [1]; P2 fraction, 3 hours at 37°C): 187±58.3 fmol/mg protein | Bmax (vesamicol receptors [1]; Purified synaptic vesicles): 1751±92.6 fmol/mg protein | increase in the Bmax of purified synaptic vesicles relative to P2 fractions (vesamicol receptors [1]; purified by density gradient centrifugation versus P2 fractions): approximately nine

Compound: Cc1ccccc1N1CCN([C@@H]2Cc3c(I)cccc3C[C@H]2O)CC1 (single isomer, unassigned) [DRE342, (-)-trans-5-iodo-2-hydroxy-3-[4-[2-methylphenyl]piperazinyl]tetralin]
IC50 [2]: 512 nM | IC50 (vesamicol receptors [3]; [6]): 0.56 nM | IC50 (sigma receptors; [7]): 50 nM | IC50 (vesamicol receptors [4]): 0.23 nM

Compound: Cc1ccc(C)c(N2CCN([C@@H]3Cc4c(I)cccc4C[C@H]3O)CC2)c1 (single isomer, unassigned) [DRE351, (+)-trans-5-iodo-2-hydroxy-3-[4-[2,5-dimethylphenyl]piperazinyl]tetralin]
IC50 [2]: 664 nM | IC50 (vesamicol receptors [3]; [6]): 11.4 nM | IC50 (sigma receptors; [7]): 4500 nM | IC50 (vesamicol receptors [4]): 7.11 nM

IC50 (vesamicol receptors [3]; Table 7, P2 fractions, inhibition of radioactive-iodine-labeled DRC140 binding, Binding site names the inhibitor's own site, read-out: IC50 (nM) Average ± S.D): 1110 ± 187 nM | inhibitive action on P2 fractions (vesamicol receptors [3]; result in words): weak inhibitive action | IC50 (vesamicol receptors [5]; Table 8, purified synaptic vesicle fractions, inhibition of radioactive-iodine-labeled DRC140 binding, read-out: IC50 (nM) Average ± S.D): 1200 ± 43 nM
Compound: O=C(c1ccc(F)cc1)C1CCN(CCn2c(=O)[nH]c3ccccc3c2=O)CC1 [Ketanserin, reference compound]
inhibitive action on purified synaptic vesicles (vesamicol receptors [5]; result in words): almost the same degree of weak inhibitive action

IC50 ([2]; read-out: inhibitive concentration at 50% (IC50), Receptor 5-HT1A, Table 9, high purity derivatives, unit inferred): 16600 nM | IC50 (vesamicol receptors [3]; read-out: inhibitive concentration at 50% (IC50), Receptor Vesamicol, Table 9, high purity derivatives (HPLC purified), I-125 labeled DRC140, P2 fractions, 3 hours at 37°C, unit inferred): 0.89 nM | IC50 (sigma receptors; read-out: inhibitive concentration at 50% (IC50), Receptor Sigma-1, Table 9, high purity derivatives, unit inferred): 4.27 nM | IC50 (adrenaline α1 receptors; read-out: inhibitive concentration at 50% (IC50), Receptor Alpha-1, Table 9, high purity derivatives, unit inferred): 421 nM
Compound: m-(iodobenzyl)trozamicol [(+)-MIBT, reference compound]

IC50 (adrenaline α1 receptors; read-out: Inhibitive concentration at 50% (IC50), Adrenaline α1 receptor, Table 5, incubated 30 minutes at 37°C, unit inferred): 402 nM | IC50 (adrenaline α1 receptors; text of disclosure, adrenaline-type nerve system receptor, read-out: IC50 value for α1-receptor): 402 nM | greater affinity to vesamicol receptors (versus α1-receptor) (vesamicol receptors [4]; ratio of IC50 α1-receptor / vesamicol receptors): 190 times | activity to the vesamicol receptor as high as the activity to the sigma receptor (vesamicol receptors [4]; ratio vesamicol receptor versus sigma receptor): 4,000 times | time to reach equilibrium (vesamicol receptors [1]; at 37°C): 3 h
Compound: O[C@@H]1Cc2cccc(I)c2C[C@H]1N1CCN(c2ccccc2)CC1 [DRC140, (-)-trans-5-iodo-2-hydroxy-3-(4-phenyl-1-piperazinyl)tetralin]

Compound: O[C@@H]1Cc2cc(I)ccc2C[C@H]1N1CCN(c2ccccc2)CC1 (racemic) [DRG449, (±)-trans-7-iodo-2-hydroxy-3-[4-phenylpiperazinyl]tetralin]
IC50 [2]: 4770 nM | IC50 (vesamicol receptors [3]; [6]): 0.55 nM | IC50 (sigma receptors; [8]): 348 nM

Compound: Cc1cccc(N2CCN([C@@H]3Cc4c(I)cccc4C[C@H]3O)CC2)c1C (racemic) [DRE354, (±)-trans-5-iodo-2-hydroxy-3-[4-[2,3-dimethylphenyl]piperazinyl]tetralin]
IC50 (vesamicol receptors [3]; [6]): 1.67 nM | IC50 (sigma receptors; [7]): 428 nM | IC50 (sigma receptors; [8]): 4560 nM | IC50 (vesamicol receptors [4]): 1.41 nM

Compound: O[C@@H]1Cc2cccc(I)c2C[C@H]1N1CCC(c2ccccc2)CC1 [5-iodobenzovesamicol]
IC50 (adrenaline α1 receptors; applicant's own research, read-out: affinity to an α1-receptor (IC50)): 6.74 nM

Compound: Cc1ccccc1N1CCN([C@@H]2Cc3c(I)cccc3C[C@H]2O)CC1 (racemic) [DRE334, (±)-trans-5-iodo-2-hydroxy-3-[4-[2-methylphenyl]piperazinyl]tetralin]
IC50 (vesamicol receptors [3]; [6]): 0.74 nM | IC50 (sigma receptors; [7]): 109 nM | IC50 (sigma receptors; [8]): 4480 nM | IC50 (vesamicol receptors [4]): 0.72 nM
